Source: ChEMBL document CHEMBL3507680, “University of Dundee, Gates Library screen for HepG2 cell viability”

Test: Human HepG2 cell viability assay in 384 well format
Format: toxicity, cell-based
Set-up: dose 125 nL, time 70.5 hour; cytotoxicity at 70.5 h: concentration not given beside the values
Conditions: HepG2 cells, read-out: Inhibition

Compound | cytotoxicity at 70.5 h
CN1CCN(CCOc2ccc(NC(=O)c3ccncc3)cc2)CC1 | -3.29%
CCOC(CC)C(=O)NCc1cccc(N2CCCCC2=O)c1 (stereo not drawn) | -6.54%
Fc1cccc(-c2nc(CN3CCCC(Cn4cncn4)C3)co2)c1 (stereo not drawn) | 16.1%
NC(=O)N1C[C@H](NC(=O)c2cscn2)[C@@H]2OCCC[C@@H]21 | -6.33%
O=C(NCC(O)c1ccoc1)Nc1cccs1 (stereo not drawn) | -6.41%
CC(C)(C)c1noc(CN2CCCN(Cc3cccs3)CC2)n1 | -3.44%
COC(=O)CN(C(=O)c1ccc(-n2ccnc2)cc1)C1CC1 | -1.73%
CCC(CC)C(CNC(=O)Nc1ccc(OC)cc1)N1CCOCC1 (stereo not drawn) | -12.2%
Cc1oncc1C(=O)N1CCC(O)(CN2CCOCC2)C(C)(C)C1 (stereo not drawn) | -2.15%
CC(Cn1cccn1)NC(=O)CCc1ccc(S(N)(=O)=O)cc1 (stereo not drawn) | -15.1%
CC(C)Sc1ccc(C(C)Nc2nc3c(cnn3C)c(=O)[nH]2)cc1 (stereo not drawn) | -3.27%
COCCN1CCN(CC(=O)N(C)Cc2ccsc2)CC1C (stereo not drawn) | -7.6%
COCC1CN(C(C)=O)CCN(c2cc(C)ncn2)C1 (stereo not drawn) | 10.4%
COc1ccc(C(CNC(=O)c2cnc(C)cn2)N2CCOCC2)cc1 (stereo not drawn) | -3.63%
Nc1nccc(N2C[C@@H](CN3CCCCC3)[C@@H](CO)C2)n1 | -6.83%
CCn1nc(C)c2ncnc(NCCCN3CCOCC3)c21 | 6.44%
OCCOc1ccc(NCc2cccnc2)cn1 | 24.6%
COc1cc(CCNC(=O)NCCC2CCCO2)ccc1C (stereo not drawn) | -9.73%
CN(C)C[C@]12COC[C@H]1CN(Cc1ccc3c(c1)OCO3)C2 | -2.79%
Cc1ccc2oc(C(=O)N3CCc4nnc(N(C)C)cc4C3)cc2n1 | -3.29%
COCC(=O)N1CCN(Cc2coc(-c3cccc(F)c3)n2)CC1 | -6.62%
Cc1cccc2c1C(=O)NC(c1cnc(C3CCC3)s1)N2 (stereo not drawn) | -21.1%
CCCc1noc(-c2cn(CC(=O)N(CC)CC)nn2)n1 | -4.55%

Compound | cytotoxicity at 70.5 h
CCS(=O)(=O)NCCNc1c(C#N)cnc2c(C)cc(F)cc12 | 2.54%
CCC1CN(C(=O)c2ccccc2C(C)=O)CCN1C(C)C (stereo not drawn) | -4.04%
Cc1nc(CNCc2ccc(N3CCN(C)CC3)nc2)cs1 | 16.7%
CN1CCN(S(=O)(=O)c2cccc(S(=O)(=O)C3CCS(=O)(=O)C3)c2)CC1 (stereo not drawn) | -11.1%
CC(=O)NC(Cc1c[nH]c2cc(F)ccc12)C(=O)Nc1nonc1C (stereo not drawn) | 22%
COC(=O)C1CCN(CC2(c3ccc(C)cn3)CCNCC2)CC1 | -2.35%
c1ccc(Cc2noc(CN3CCOC(Cn4cccn4)C3)n2)cc1 (stereo not drawn) | -3.64%
CC(=O)Nc1nc2c(s1)CN(CC(=O)Nc1ccc(C)c(Cl)c1)CC2 | -14.4%
O=C(CCC1CCCN(C(=O)CCc2ccc(F)c(F)c2)C1)NC1CC1 (stereo not drawn) | -8.38%
Cc1cc(C(=O)Nc2n[nH]c(C3CC3)n2)c2c(C)nn(C)c2n1 | 25.6%
Fc1ccc([C@@H]2COC[C@H]2NCc2cccc(F)c2)cc1 | -3.65%
CCC(Nc1cccc(OC)c1)C(=O)NCc1ccc2[nH]c(=O)[nH]c2c1 (stereo not drawn) | -11.6%
O=C(c1ccccn1)N1CCN(c2ccc(-n3cccc3)nn2)CC1 | -4.16%
CC1c2ncc(COCC3CC3)n2CCN1S(=O)(=O)N(C)C (stereo not drawn) | -1.15%
Cc1cccc(S(=O)(=O)N2CC[C@H]3[C@H]2CCN3c2ncccn2)c1 | -6.57%
Cc1cccc(CO[C@@H]2CC[C@H]3[C@H]2OCCN3Cc2nccs2)n1 | -0.937%
CCc1cnc(NCCS(=O)(=O)CC(C)C)nc1 | 19.7%
Cc1nc2c(N3CCN(CCO)CC3)nc(N)nc2n1C | 0.799%
Cn1nc(CNc2ncccn2)c2c1CN(c1cnccn1)CC2 | -8.13%
CCc1noc(CNc2nc(-c3cccnc3)nc3c2CCNCC3)n1 | -14.3%
Cc1cc(C)n(CC2CCCCN2CC(=O)N(C)Cc2ccco2)n1 (stereo not drawn) | 6.64%
CCC(NC(=O)c1cccc2[nH]ccc12)C(=O)N1CCOCC1 (stereo not drawn) | -6.49%
O=C1CCC2(CCCO2)CCN1Cc1noc(C2CCCC2)n1 (stereo not drawn) | 0.738%

Compound | cytotoxicity at 70.5 h
Cc1nnc(N2CCCC2)c(C(N)=O)c1C | -6.33%
CC(Cc1ccco1)NS(=O)(=O)N1CCCCCC1 (stereo not drawn) | -8.2%
CC(C)(C)OC(=O)NCC1CCN(C(=O)c2ccc(F)cc2F)C1 (stereo not drawn) | -4.74%
CNC(=O)C(C)(C)NC(=O)c1cc(COc2cccc(C(C)=O)c2)[nH]n1 | -6.29%
Cc1cc(NC(=O)CN2CCc3nn(C)c(=O)cc3C2)on1 | 1.43%
Cc1noc(C)c1CN1CCN(C)c2ncccc2C1 | -5.95%
c1ccc(-c2nc(CN3CCn4c(nnc4C4CC4)C3)cs2)cc1 | -11.8%
O=C(N[C@@H]1CN[C@H]2CCCO[C@H]21)c1cccnc1 | 1.62%
CC(C)N(Cc1ccc(C(F)(F)F)nc1)Cc1cnn(C)c1 | -6.85%
CCc1ocnc1C(=O)N1CCCC(n2nc(C)nc2C)C1 (stereo not drawn) | 5.06%
O=C(c1ccc2c(c1)CCC2)N1CC[C@H](O)[C@]2(CCCO2)C1 | -0.381%
O=C(NC1CCC1)C1CCC2(CN(C(=O)c3ccno3)C2)O1 (stereo not drawn) | -14%
CCCc1cc(N2CCCC2Cn2nc(C)cc2C)n2ncnc2n1 (stereo not drawn) | -5.55%
CC(C)(C)OC(=O)N1CCN(c2cccnc2)CC1C(=O)O (stereo not drawn) | -0.358%
O=C(NC1CCCN(CCCc2ccccc2)C1)c1ccncc1 (stereo not drawn) | -2.32%
Fc1ccccc1C(CNc1ccncn1)N1CCCC1 (stereo not drawn) | -8.28%
OCCCNc1cccc(COC2CCCCC2)c1 | 21%
CN1CCN(CC(=O)NCc2ccco2)Cc2ccccc21 | -13.5%
Cc1c(-c2n[nH]c3c2CN(CC2CCOC2)CC3)cccc1C(F)(F)F (stereo not drawn) | -6.06%
Cc1cccc(C2CCCN(S(=O)(=O)c3cccnc3)C2)n1 (stereo not drawn) | -2.36%
Cc1cc(C(=O)NC(C)Cc2ccccc2Cl)n(C)n1 (stereo not drawn) | -7.08%
CCCC(=O)N1CCC(C(=O)NCCNc2ncccn2)CC1 | 0.692%
COc1cccc(NC(=O)CN2CCN(S(C)(=O)=O)CC2)c1 | -8.85%

Compound | cytotoxicity at 70.5 h
CN(C)C(=O)c1nc(-c2ccc(S(C)(=O)=O)cc2)c2cnccn12 | -6.88%
CC1=CC[C@@H]2CN(C(=O)c3ccc(-c4nnn(C)n4)cc3)C[C@@H]2C1 | 6%
Cc1nc(N2CCN(C(=O)C3CCCC3)CC2)c2c(n1)c(C)nn2C | -0.908%
Cc1nn(-c2ccccc2)c2nc(C(C)(C)CN3CCN(C)CC3)[nH]c12 | -1.61%
Cc1nn(C)c(Cl)c1CNCc1ccc(OCC(N)=O)cc1 | 1.75%
CCc1ccc(CN2C[C@@H](c3nc(C)no3)C[C@H]3OCC[C@H]32)o1 | -3.87%
CN(C)c1ncccc1C(=O)N1CCc2c(ncn2C2CC2)C1 | -4.54%
CCc1nc(C2CCCN2Cc2nnc(C3CC3)o2)no1 (stereo not drawn) | -3.82%
CC1CCc2n[nH]c(C(=O)NCCc3ccco3)c2C1 (stereo not drawn) | -2.98%
COc1cc2[nH]c(=O)c(CN3CCC[C@H]3CO)cc2c(OC)c1OC | 14%
CCOc1ccc(NC(=O)CN2CCN(c3nccn3C)CC2)cc1 | -2.94%
CN(Cc1cccc(F)c1)C(=O)CN1CCOC(Cn2cncn2)C1 (stereo not drawn) | -0.78%
Cc1cnc(C(=O)N2CCC3(CCN3Cc3ccc(F)cc3)C2)cn1 (stereo not drawn) | -0.513%
O=C(c1ccsc1)N1CCN2C[C@H](OCc3ccccn3)C[C@H]2C1 | -10.1%
CNc1cc(-c2cccc(CN)c2)c2cc[nH]c2n1 | -13.9%
c1csc(CN2C[C@@H]3OCCN(CC4CCCO4)[C@@H]3C2)c1 (stereo partly drawn) | -7.54%
NC(=O)Nc1cccc(Oc2ccccn2)c1 | -4.42%
CC(C)S(=O)(=O)NC(=O)CC(c1ccccc1)C(F)(F)F (stereo not drawn) | -9.01%
Cc1nnc(N2CCOC(C)C2)c(C#N)c1C (stereo not drawn) | -8.59%
Cc1ccc2c(c1)SCC(=O)N2Cc1noc(C2CC2)n1 | 16.3%
Cc1nc[nH]c1CN1C[C@@H]2CC[C@H](C1)N(C(=O)CCn1cncn1)C2 | -15%
CSc1nc(N)c2c(n1)N=C1COC(O)=C1C2c1cccc(Cl)c1 (stereo not drawn) | 47.4%
CN1CCC(NC(=O)c2cc(C3CCCCC3)nc3ccccc23)CC1 | -2.29%

Compound | cytotoxicity at 70.5 h
CN(CCN1CCCCC1)C(=O)c1cc(CN2CCOCC2)on1 | 2.75%
CN(Cc1nc2ccccc2n1C)C(=O)CCc1cscn1 | -1.17%
Cc1ccc(N2CCC3(CC2)CCN(C2CCOC2)CC3)nn1 (stereo not drawn) | -6.73%
CCc1nc(CN2CCCC(NCc3cccc(C(N)=O)c3)C2)no1 (stereo not drawn) | -6.52%
Cc1cc(C)n(CC2CCCN2CCCS(=O)(=O)N(C)C)n1 (stereo not drawn) | -9.4%
COc1cc(C)nc(N2CCN(C(=O)CCc3ccsc3)CC2)n1 | -4.26%
CN(C)C(=O)CCC(=O)N1CCC2(CC1)COC2 | 12.8%
Cc1ncc2c(n1)CCN(C(C(N)=O)c1ccccc1)C2 (stereo not drawn) | -2.66%
CCOc1c(Br)cc(C2C3=C(COC3=O)Nc3[nH]nc(C)c32)cc1OC (stereo not drawn) | 29.2%
CCN(C)c1ncnc2c1CCN(CC1CCOC1)CC2 (stereo not drawn) | -8.27%
CCCN1CCN(C(=O)c2cnn(-c3ccccc3F)c2)CC1 | 8.36%
Fc1cccc(CN2CCC(c3noc(-c4cnccn4)n3)CC2)c1F | -0.815%
O=C(NCC1CC1)[C@H]1CC[C@@H]2[C@@H](CCN2Cc2ccoc2)O1 | -12.5%
O=C(Cn1cc(I)cn1)N1CCOCC1 | -3.24%
COc1cc(CN2CCCC(Nc3cccc(F)c3)C2)cc(OC)c1O (stereo not drawn) | -5.97%
CC(SCC(=O)NC(N)=O)c1ccc(Cl)cc1 (stereo not drawn) | -9.52%
O=C(CC1CC1)N[C@@H]1CN(c2ncccn2)C[C@@H]2CCCO[C@@H]21 | -7.21%
Cc1ccc(C(C)NC(=O)Nc2ccccc2CN2CCOCC2)o1 (stereo not drawn) | -11.2%
O=C(Cc1ccccn1)N1CCC(c2noc(-c3ccncc3)n2)CC1 | 5.1%
O=C(Nc1nnn[nH]1)c1ccc(I)c(F)c1 | 4.13%
COc1ccc(C(=O)Nc2cccc(SC)c2)c(OC)n1 | 26.2%
